Laboratory results as given in patent publication US20120035531A1, “ON-DEMAND AND REVERSIBLE DRUG RELEASE BY EXTERNAL CUE” (PRESIDENT AND FELLOWS OF HARVARD COLLEGE, priority 2009, published 2012).

Tests used:
MCF7 breast cancer cells = experiment: Bioactivity of ultrasound-released Mitoxantrone: MCF7 cell viability; format: cell-based; settings: 24 hours, ultrasound-released vs fresh Mitoxantrone solution 0.1 to 20 μg/mL
Protocol: The bioactivity of the released Mitoxantrone in example 1 was studied by incubating MCF7 breast cancer cells in the Mitoxantrone solution, and measuring the cell viability after 24 hours. Fresh Mitoxantrone solutions (unmixed with polymer) with various concentrations ranging from 0.1 to 20 μg/mL were also used to incubate the same number of MCF7 breast cancer cells.

[1] = In vitro release of encapsulated Mitoxantrone from alginate hydrogel with ultrasound; format: physicochemical
Protocol: Alginate hydrogels containing 0.825 mg/mL of Mitoxantrone were prepared by mixing alginate aqueous solution with slurries of CaSO4, to a final concentration of 50 mM Ca^2+ and 2% alginate (w/w) polymer. The gel was cast between two glass slides and cut into discs of approximately 10 mm diameter and 2 mm thickness. Thereafter, hydrogels were swollen overnight in the commercially available Dulbecco's Modified Eagle's Medium (DMEM). Hydrogel disks so prepared were next placed in a 15 mL plastic tube with 5 ml of DMEM. One group of the sample hydrogels were subjected to low-frequency ultrasound with frequency of 20 KHz and intensity of 1 watt for 5 min per hour. A further group comprising control hydrogels, similarly prepared, were not subjected to any stimulation. FIGS. 1A and 1B show the power profiles of ultrasound on the two groups of hydrogels.

In the case of O=C1c2c(O)ccc(O)c2C(=O)c2c(NCCNCCO)ccc(NCCNCCO)c21 [Mitoxantrone], the cell viability (MCF7 breast cancer cells) is reported as “reduces cell viability by the same amount as a fresh Mitoxantrone solution of equivalent concentration”, the “level of enhanced release rates across ultrasound pulses” value ([1]; 20 KHz, 1 watt, 5 min per hour) is reported as “all on the same level” and the “increase of cumulative release amount” value ([1]; 5 min of ultrasound per hour, 20 KHz, 1 watt, vs control hydrogels) is reported as roughly 70%. The “increase of release rates by ultrasound stimulation” value ([1]; alginate hydrogel 0.825 mg/mL Mitoxantrone in DMEM, 20 KHz, 1 watt, 5 min per hour, vs no stimulation) was “approximately 10 times” and the “rate of release after removing the ultrasound” value ([1]; alginate hydrogel in DMEM) was “decayed to negligible levels”.
